In patent US12491170B2, “Stable treprostinil prodrugs” (United Therapeutics Corporation, priority 2020, dated 2025):
Where two headings read alike, the source gives them in different places.

How the values were obtained:
[1] = Stability in liver microsomes, human; conditions: for AUC: human
[2] = Stability in liver microsomes, rat
[3] = Stability in liver microsomes, dog
[4] = Stability in cryopreserved hepatocytes, human; conditions: for AUC: human
[5] = Stability in cryopreserved hepatocytes, rat; conditions: for AUC: rat
[6] = Stability in cryopreserved hepatocytes, dog; conditions: for AUC: dog
[7] = Stability in human subcutaneous skin homogenate; conditions: for AUC: human
[8] = rat
[9] = dog

CCCCCC(CCC1C(O)CC2Cc3c(cccc3OCC(=O)O)CC21)OC(=O)COc1ccc(O)cc1 (stereo not shown) [LIV]
Trep Concentration 0 min [1]: 0.908 µM
Trep Concentration 10 min [1]: 0.679 µM
Trep Concentration 20 min [1]: 0.564 µM
Trep Concentration 30 min [1]: 0.463 µM
Trep Concentration 60 min [1]: 0.338 µM
AUC [1]: 31.30 µmol·min/L
Trep Concentration 0 min [2]: 0.849 µM
Trep Concentration 10 min [2]: 0.784 µM
Trep Concentration 20 min [2]: 0.765 µM
Trep Concentration 30 min [2]: 0.709 µM
Trep Concentration 60 min [2]: 0.811 µM
Trep Concentration 0 min [3]: 0.307 µM
Trep Concentration 10 min [3]: 0.544 µM
Trep Concentration 20 min [3]: 0.678 µM
Trep Concentration 30 min [3]: 0.729 µM
Trep Concentration 60 min [3]: 0.777 µM
Trep Concentration (μM) 0 min [4]: 0.0156 µM
Trep Concentration (μM) 15 min [4]: 0.58 µM
Trep Concentration (μM) 30 min [4]: 0.47 µM
Trep Concentration (μM) 60 min [4]: 0.475 µM
Trep Concentration (μM) 120 min [4]: 0.461 µM
AUC [4]: 54.60 µmol·min/L
Trep Concentration (μM) 0 min [5]: 0.0862 µM
Trep Concentration (μM) 15 min [5]: 0.512 µM
Trep Concentration (μM) 30 min [5]: 0.426 µM
Trep Concentration (μM) 60 min [5]: 0.441 µM
Trep Concentration (μM) 120 min [5]: 0.455 µM
AUC [5]: 51.41 µmol·min/L
Trep Concentration (μM) 0 min [6]: 0.00351 µM
Trep Concentration (μM) 15 min [6]: 0.295 µM
Trep Concentration (μM) 30 min [6]: 0.273 µM
Trep Concentration (μM) 60 min [6]: 0.262 µM
Trep Concentration (μM) 120 min [6]: 0.262 µM
AUC [6]: 30.24 µmol·min/L
Trep Concentration 0 min [7]: 0 µM
Trep Concentration 30 min [7]: 0.486 µM
Trep Concentration 60 min [7]: 0.694 µM
Trep Concentration 120 min [7]: 0.848 µM
AUC [7]: 71.25 µmol·min/L
AUC [8]: 46.08 µmol·min/L
AUC [9]: 39.99 µmol·min/L

CCCCCC(CCC1C(O)CC2Cc3c(cccc3OCC(=O)O)CC21)OC(=O)CC (stereo not shown) [LV]
Trep Concentration 0 min [1]: 1.17 µM
Trep Concentration 10 min [1]: 1.01 µM
Trep Concentration 20 min [1]: 0.837 µM
Trep Concentration 30 min [1]: 0.736 µM
Trep Concentration 60 min [1]: 0.389 µM
AUC [1]: 44.88 µmol·min/L
Trep Concentration 0 min [2]: 0.26 µM
Trep Concentration 10 min [2]: 0.43 µM
Trep Concentration 20 min [2]: 0.525 µM
Trep Concentration 30 min [2]: 0.586 µM
Trep Concentration 60 min [2]: 0.553 µM
Trep Concentration 0 min [3]: 0.971 µM
Trep Concentration 10 min [3]: 0.961 µM
Trep Concentration 20 min [3]: 0.934 µM
Trep Concentration 30 min [3]: 0.915 µM
Trep Concentration 60 min [3]: 0.743 µM
Trep Concentration (μM) 0 min [4]: 0.113 µM
Trep Concentration (μM) 15 min [4]: 0.725 µM
Trep Concentration (μM) 30 min [4]: 0.654 µM
Trep Concentration (μM) 60 min [4]: 0.589 µM
Trep Concentration (μM) 120 min [4]: 0.527 µM
AUC [4]: 68.75 µmol·min/L
Trep Concentration (μM) 0 min [5]: 0.0159 µM
Trep Concentration (μM) 15 min [5]: 0.506 µM
Trep Concentration (μM) 30 min [5]: 0.48 µM
Trep Concentration (μM) 60 min [5]: 0.424 µM
Trep Concentration (μM) 120 min [5]: 0.391 µM
AUC [5]: 49.32 µmol·min/L
Trep Concentration (μM) 0 min [6]: 0.124 µM
Trep Concentration (μM) 30 min [6]: 0.698 µM
Trep Concentration (μM) 60 min [6]: 0.599 µM
Trep Concentration (μM) 120 min [6]: 0.53 µM
AUC [6]: 71.21 µmol·min/L
Trep Concentration 0 min [7]: 0.0045 µM
Trep Concentration 30 min [7]: 0.545 µM
Trep Concentration 60 min [7]: 0.741 µM
Trep Concentration 120 min [7]: 0.954 µM
AUC [7]: 78.38 µmol·min/L
AUC [8]: 30.87 µmol·min/L
AUC [9]: 53.25 µmol·min/L

CCCCCC(CCC1C(O)CC2Cc3c(cccc3OCC(=O)O)CC21)OC(=O)COc1ccc(OC(F)(F)F)cc1 (stereo not shown) [LXIV]
Trep Concentration 0 min [1]: 0.911 µM
Trep Concentration 10 min [1]: 0.752 µM
Trep Concentration 20 min [1]: 0.667 µM
Trep Concentration 30 min [1]: 0.596 µM
Trep Concentration 60 min [1]: 0.351 µM
AUC [1]: 35.93 µmol·min/L
Trep Concentration 0 min [2]: 0.803 µM
Trep Concentration 10 min [2]: 0.882 µM
Trep Concentration 20 min [2]: 0.91 µM
Trep Concentration 30 min [2]: 0.902 µM
Trep Concentration 60 min [2]: 0.753 µM
Trep Concentration 0 min [3]: 0.453 µM
Trep Concentration 10 min [3]: 0.548 µM
Trep Concentration 20 min [3]: 0.592 µM
Trep Concentration 30 min [3]: 0.603 µM
Trep Concentration 60 min [3]: 0.627 µM
Trep Concentration (μM) 0 min [4]: 0.0116 µM
Trep Concentration (μM) 15 min [4]: 0.521 µM
Trep Concentration (μM) 30 min [4]: 0.509 µM
Trep Concentration (μM) 60 min [4]: 0.458 µM
Trep Concentration (μM) 120 min [4]: 0.411 µM
AUC [4]: 52.29 µmol·min/L
Trep Concentration (μM) 0 min [5]: 0.0456 µM
Trep Concentration (μM) 15 min [5]: 0.374 µM
Trep Concentration (μM) 30 min [5]: 0.291 µM
Trep Concentration (μM) 60 min [5]: 0.234 µM
Trep Concentration (μM) 120 min [5]: 0.206 µM
AUC [5]: 29.21 µmol·min/L
Trep Concentration (μM) 0 min [6]: 0.0196 µM
Trep Concentration (μM) 15 min [6]: 0.466 µM
Trep Concentration (μM) 30 min [6]: 0.514 µM
Trep Concentration (μM) 60 min [6]: 0.485 µM
Trep Concentration (μM) 120 min [6]: 0.451 µM
AUC [6]: 54.06 µmol·min/L
Trep Concentration 0 min [7]: 0 µM
Trep Concentration 30 min [7]: 0.0793 µM
Trep Concentration 60 min [7]: 0.155 µM
Trep Concentration 120 min [7]: 0.283 µM
AUC [7]: 17.84 µmol·min/L
AUC [8]: 51.27 µmol·min/L
AUC [9]: 35.13 µmol·min/L

CCCCCC(CCC1C(O)CC2Cc3c(cccc3OCC(=O)O)CC21)OC(=O)C(C)N (stereo not shown) [XXXI]
Trep Concentration 0 min [1]: 0.0531 µM
Trep Concentration 10 min [1]: 0.193 µM
Trep Concentration 20 min [1]: 0.31 µM
Trep Concentration 30 min [1]: 0.327 µM
Trep Concentration 60 min [1]: 0.383 µM
AUC [1]: 17.58 µmol·min/L
Trep Concentration 0 min [2]: 0.00504 µM
Trep Concentration 10 min [2]: 0.0179 µM
Trep Concentration 20 min [2]: 0.0351 µM
Trep Concentration 30 min [2]: 0.0465 µM
Trep Concentration 60 min [2]: 0.107 µM
Trep Concentration 0 min [3]: 0.134 µM
Trep Concentration 10 min [3]: 0.479 µM
Trep Concentration 20 min [3]: 0.63 µM
Trep Concentration 30 min [3]: 0.674 µM
Trep Concentration 60 min [3]: 0.694 µM
Trep Concentration 0 min [7]: 0 µM
Trep Concentration 60 min [7]: 0.204 µM
Trep Concentration 120 min [7]: 0.323 µM
AUC [7]: 22.23 µmol·min/L
AUC [8]: 3.09 µmol·min/L
AUC [9]: 35.65 µmol·min/L

CCCCCC(CCC1C(O)CC2Cc3c(cccc3OCC(=O)O)CC21)OC(=O)NCC(=O)O (stereo not shown) [XXXVIII]
Trep Concentration 0 min [1]: 0 µM
Trep Concentration 10 min [1]: 0 µM
Trep Concentration 20 min [1]: 0 µM
Trep Concentration 30 min [1]: 0 µM
Trep Concentration 60 min [1]: 0 µM
AUC [1]: 0.00 µmol·min/L
Trep Concentration 0 min [2]: 0 µM
Trep Concentration 10 min [2]: 0 µM
Trep Concentration 20 min [2]: 0 µM
Trep Concentration 30 min [2]: 0 µM
Trep Concentration 60 min [2]: 0 µM
Trep Concentration 0 min [3]: 0 µM
Trep Concentration 10 min [3]: 0 µM
Trep Concentration 20 min [3]: 0 µM
Trep Concentration 30 min [3]: 0 µM
Trep Concentration 60 min [3]: 0 µM
Trep Concentration 0 min [7]: 0 µM
Trep Concentration 30 min [7]: 0 µM
Trep Concentration 60 min [7]: 0 µM
Trep Concentration 120 min [7]: 0 µM
AUC [7]: 0.00 µmol·min/L
AUC [8]: 0.00 µmol·min/L
AUC [9]: 0.00 µmol·min/L

CCCCCC(CCC1C(O)CC2Cc3c(cccc3OCC(=O)O)CC21)OC(=O)CN (stereo not shown) [XXX]
Trep Concentration 0 min [1]: 0.036 µM
Trep Concentration 10 min [1]: 0.132 µM
Trep Concentration 20 min [1]: 0.227 µM
Trep Concentration 30 min [1]: 0.31 µM
Trep Concentration 60 min [1]: 0.429 µM
AUC [1]: 16.41 µmol·min/L
Trep Concentration 0 min [2]: 0.011 µM
Trep Concentration 10 min [2]: 0.0524 µM
Trep Concentration 20 min [2]: 0.0901 µM
Trep Concentration 30 min [2]: 0.122 µM
Trep Concentration 60 min [2]: 0.196 µM
Trep Concentration 0 min [3]: 0.0977 µM
Trep Concentration 10 min [3]: 0.347 µM
Trep Concentration 20 min [3]: 0.495 µM
Trep Concentration 30 min [3]: 0.562 µM
Trep Concentration 60 min [3]: 0.664 µM
Trep Concentration 0 min [7]: 0 µM
Trep Concentration 30 min [7]: 0.206 µM
Trep Concentration 60 min [7]: 0.369 µM
Trep Concentration 120 min [7]: 0.533 µM
AUC [7]: 38.78 µmol·min/L
AUC [8]: 6.86 µmol·min/L
AUC [9]: 30.11 µmol·min/L
